Assay results as given in US7728105B2, “Peptides impairing PBX dependent gene regulation” (St. George's Hospital Medical School, priority 2002, dated 2010).
No end group written: not given here.

Tests used:
malignant cell lines = assay: Proliferation of malignant cell lines over seven days in culture; type: cell-based, human; set-up: effect of increased dose on proliferation of malignant cell lines: dose or concentration left out as unconfirmed; settings: ten fold increase in dose
Method: A number of cell lines representing different malignancies were grown in culture for seven days, and HXP peptide or the control peptide CXP were added to a final concentration of 20 μg/ml on day 3. The bars represent the fold increase of each cell line over the seven days; the empty, dashed bars indicate the CXP peptide treated cells, whilst the solid bars indicate the addition of HXP peptide. Error bars represent the standard error the mean, and n is the number of experiments performed. The cell lines used were: AML—KG1a; Bladder—HT; Breast—SKBR3; Cervical—HeLa; Colon—Colo41; Gastric—MKN-45; Large cell lung cancer—MES; Melanoma—DX3; Ovarian—1847; Pancreatic—Panc-Tu1; Prostate—LNCAP; Renal—HT1376; Small cell lung cancer—NCI-h510A. The change in the expression of the HOX genes expressed by each cell line was assessed by RT-PCR on RNA extracted from the cells at the end of seven days. ‘HOX gene inactivated’ means that the level of expression of each of the listed HOX genes was at least five fold lower in the HXP peptide treated cells compared to the control. *Analysis not yet complete.
A number of cell lines representing different malignancies were grown in culture for seven days, and HXP peptide or the control peptide CXP were added to a final concentration of 200 μg/ml on day 3. The bars represent the fold increase of each cell line over the seven days; the empty, dashed bars indicate the CXP peptide treated cells, whilst the solid bars indicate the addition of HXP peptide. Error bars represent the standard error the mean, and n is the number of experiments performed. The cell lines used were: Bladder—HT; Cervical—HeLa; Melenoma—DX3; Pancreatic—Panc-Tu1.
Solid tumour cell lines (Cancer Research UK) were seeded at 4×10^4 cells/ml, in a liquid culture system made of appropriate medium (see table, Sigma-Aldrich, UK) supplemented with 10% FCS (Sigma Aldrich) and penstrep (1% Sigma). All cell lines were grown with HXP peptide (as in Example 3, 20 μg/ml or 200 μg/ml) or control peptide CXP (20 μg/ml or 200 μg/ml).
KG1a, KG1, HL60 and U937 cell lines (EACC, UK) were seeded at 5×10^4 cells/ml, in a liquid culture system made of RPMI-1640 medium (Life Technologies, UK) supplemented with 10% FCS (Sigma Aldrich) and gentamicin (50 μg/ml Life Technologies) in triplicates. All cell lines were grown with HXP peptide peptide (20 μg/ml) or control peptide (20 μg/ml).
Cell lines were cultured for various time points at 37° C., 5% CO2 in humidified atmosphere and enumerated at various time points.

[1] = tested on: PBX1, 2 and 3 association with HOX proteins; assay: Cross-linking and Western blot of PBX proteins in KG1a cells (Example 2); type: cell-based, human; settings: 24 hours, 1 μM peptide, EDC cross-linking
Method: HXP and control peptides were as described in Example 1. KG1a cells were grown as described in Example 1. KG1a cells were cultured for 24 hours without treatment, or in the presence of 1 μM HXP peptide or control peptide. The cells were harvested and lysed. One aliquot of the cells was subject to cross-linking. Frozen cells were lysed using standard techniques and […] of lysate was incubated for 30 minutes at room temperature in 4 mM 1-ethyl-3-[3-(dimethyl-amino)propyl]carbodimide (EDC), 4 mM sulpho-NHS, 20 mM HEPES (pH 7.5), 5 mM MgCl2, and 0.03% (w/v) […] to cross-link non-covalently associated proteins. The reaction was stopped by the addition of ammonium acetate to a final concentration of 50 mM. The other aliquot was frozen without cross-linking.
Proteins were extracted from the cells of both aliquots by standard techniques and separated by gel electrophoresis. The gels were probed by Western blot with an antibody raised against PBX1, 2 and 3 (sc-888, Santa Cruz Inc. USA) or an anti-beta actin antibody (sc-1615, Santa Cruz Inc. USA).

PBX/HOX dimers = assay: Western blotting of PBX and PBX/HOX dimers in CD133+ cells (Example 3); type: cell-based, human; settings: 20 μg/ml, EDC cross-linking
Method: CD133+ cells (another name for AC133+ cells) were seeded in duplicate at 4×10^4 cells/ml in IMDM (Life Technologies), 10% FCS (Sigma Aldrich) and gentamycin (50 μg/ml Life Technologies) and Thrombopoietin (TPO) 10 ng/ml, Flt3-Ligand (FL) 50 ng/ml & c-KitL (K) 20 ng/ml), all obtained from R and D systems Ltd., UK. (Forraz et al., 2002). The HXP peptide (N-term: WYPWMKKHHRQIKIWFQNRRMKWKK: C-term; Eurogentec, Belgium) and control CXP peptide (N-term: WCCLADRHGRQIKIWFQNRRMKWKK: C-term; Eurogentec, Belgium) were added to culture medium at a concentration of 20 μg/ml. To withdraw peptides from culture, cells were washed twice in IMDM or RPMI and reseeded at prewash cell densities. Primary cells were cultured for 3 weeks at 37° C., 5% CO2 in humidified atmosphere and enumerated by a […] exclusion method with a heamocytometer.
Protein was extracted from HXP-treated or CXP-treated CD133+ cells (20 μg/ml). C-20 antibody that recognises all three human PBX gene proteins (sc-888, Santa Cruz Biotechnology Inc., USA; Monica et al., 1991). Protein cross linking was performed with 2 mM 1-ethyl-3-[3-(dimethylamino)propyl]carbodiimide (EDC) (Pierce Biotechnology, USA), in cell lysates diluted 1:10 in conjugation buffer (0.1M 2-[N-morpholino]ethane sulphonic acid, pH 5). […]

[2] = Stability in human serum at 37° C., denaturing PAGE and silver stain
Method: 30 μg of HXP(10) or HXP peptide were incubated in 50 μl of human serum at 37° C. for the times shown. Samples were run on a denaturing PAGE and silver stained.

AC133+ cells = assay: Short-term ex-vivo AC133+ cell expansion culture with HXP peptide, trypan blue cell count; type: cell-based, human; settings: HXP peptide withdrawn at 7 days, Hox B4 protein 20 μg/ml added
Method: Umbilical Cord Blood (UCB) specimens were collected from full-term deliveries scheduled for elective caesarian sections following hospital ethical regulations.
Samples were diluted 1 in 4 in PBS supplemented with a citrate-based anti-coagulant (0.6% ACD-A, Baxter, France) and Bovine Serum Albumin (0.5% fraction V, Sigma Aldrich, UK) at pH=7.4 and referenced as “ACD-A buffer”. Diluted UCB was carefully overlaid in a 1:4 ratio onto a research grade Ficoll-Paque solution (d:1.077 g/cm^3, Pharmacia Biotech, Sweden) prior to Centrifugation (400 g, 30 minutes, 22° C.). The mononuclear cells (MNC) layer was extracted, washed twice in ACD-A Buffer, pelleted (400 g, 10 minutes) before resuspending in ACD-A buffer and cell aliquots taken for cell viability/enumeration using trypan blue (Sigma Aldrich).
AC133+ cells were obtained from MNC after immunomagnetic separation using the AC133 mini-MACS selection kit (Miltenyi Biotec, Germany): labelling volume 500 μl/10^8 cells in ACD-A buffer containing Fc Receptor-blocking reagent (100 μl, 5 min incubation, 4° C.) before adding colloidal super-paramagnetic MACS MicroBeads conjugated to monoclonal mouse anti-human AC133/1 antibody (100 μl IgG1 isotype, 25 min incubation, 4° C.). Cells were then washed (5 ml ACD-A buffer, 400 g, 10 min, 4° C.) before resuspended cells in 500 μl ACD-A buffer were applied to a chilled MACS positive selection column (MS+/RS+) on a magnet. The column was rinsed with cool ACD-A buffer (4×500 μl) and the AC133− cell population retained at 4° C. After magnet removal AC133+ cells were eluted with 1 ml of cold ACD-A buffer. The AC133+ cell fraction was reapplied to a new column, prior to cell enumeration and viability assays.
AC133+ cells were seeded in duplicate in liquid culture system at 2-4×10^4 cells/ml. […] Cultured cells were then counted at various time points using trypan blue exclusion method described above.

[3] = comparison with other peptide based pharmaceuticals; cited from earlier work

Substance: WAPWEDDHHRQIKIWFQNRRMKWKK (Control Peptide) [reference compound]
- effect of increased dose on proliferation of malignant cell lines (malignant cell lines): no significant affect on proliferation
- association of PBX proteins with other proteins (HOX proteins) [1]: associated with-other proteins

Substance: WCCLADRHGRQIKIWFQNRRMKWKK (WCCLADRHGRQIKIWFQNRRMKWKK) [CXP, reference compound]
- binding of PBX to other proteins / formation of PBX/HOX dimers (PBX/HOX dimers): not

Substance: WYPWMKKHHR [HXP4(10), WYPWMKKHHR]
- half-life [2]: ~240 min

Substance: HOX B4: recombinant full length Xenopus laevis sequence
- AC133+ cell proliferation after HXP peptide withdrawal and co-stimulation with HOX B4 (AC133+ cells): reverted to near control levels

Substance: low molecular weight heparin
- serum half life [3]: thirty
